Usually IC50 stands for the concentration that gives 50% inhibition. Read a low IC50 as greater potency in that assay.

From patent US20260015358A1, “BICYCLIC DERIVATIVES, COMPOSITIONS AND USES THEREOF” (Danatlas Pharmaceuticals Co., Ltd., priority 2023, published 2026) come the findings set out here.

The target in assay [1] is T1, WRN [UniPro: Q14191 (WRN_HUMAN), N500-C946] (Homo sapiens (Human), UniProt Q14191). The experiment in a line: WRN ATPase assay (ADP-Glo). In kind it is biochemical. Conditions: WRN enzymatic activity assay. On the technique in general: ADP-Glo turns the ADP formed in a reaction into a luminescent signal.
In assay [2] the target is T1, WRN [UniPro: Q14191 (WRN_HUMAN), N500-C946]. The experiment in a line: WRN unwinding assay (FORKF DNA, fluorescence). In kind it is biochemical. To be noted: Table 14.

T1 sequence (Q14191 500-946): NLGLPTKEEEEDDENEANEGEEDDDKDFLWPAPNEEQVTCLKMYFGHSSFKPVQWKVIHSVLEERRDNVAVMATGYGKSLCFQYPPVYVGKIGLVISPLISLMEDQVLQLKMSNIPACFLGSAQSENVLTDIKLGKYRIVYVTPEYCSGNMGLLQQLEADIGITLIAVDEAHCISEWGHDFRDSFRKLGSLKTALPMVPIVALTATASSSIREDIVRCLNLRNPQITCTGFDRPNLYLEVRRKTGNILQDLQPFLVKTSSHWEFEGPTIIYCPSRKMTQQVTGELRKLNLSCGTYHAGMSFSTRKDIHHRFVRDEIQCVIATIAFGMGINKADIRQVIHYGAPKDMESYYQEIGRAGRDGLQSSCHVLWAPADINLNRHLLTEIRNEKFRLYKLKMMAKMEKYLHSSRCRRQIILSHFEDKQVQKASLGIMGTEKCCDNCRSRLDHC

Take `CCc1c(N2CCN(C(=O)CNC(=O)c3cc(C#N)ccc3F)CC2)c(=O)n2nc(C3=CCOCC3)nc2n1CC(=O)Nc1ccc(C(F)(F)F)cc1Cl` [Example 382, N-(2-(4-(4-(2-((2-Chloro-4-(trifluoromethyl)phenyl)amino)-2-oxoethyl)-2-(3,6-dihydro-2H-pyran-4-yl)-5-ethyl-7-oxo-4,7-dihydro-[1,2,4]triazolo[1,5-a]pyrimidin-6-yl)piperazin-1-yl)-2-oxoethyl)-5-cyano-2-fluorobenzamide]: the IC50 in assay [1] and in assay [2] was < 100 nM throughout.

In the case of `CCc1c(N2CCN(C(=O)CNC(=O)N3CCc4cccc(F)c43)CC2)c(=O)n2nc(C3=CCOCC3)nc2n1CC(=O)Nc1ccc(C(F)(F)F)cc1Cl` [Example 193, N-(2-(4-(4-(2-((2-Chloro-4-(trifluoromethyl)phenyl)amino)-2-oxoethyl)-2-(3,6-dihydro-2H-pyran-4-yl)-5-ethyl-7-oxo-4,7-dihydro-[1,2,4]triazolo[1,5-a]pyrimidin-6-yl)piperazin-1-yl)-2-oxoethyl)-7-fluoroindoline-1-carboxamide], the IC50 in assay [1] and in assay [2] was < 100 nM each time.

Regarding `CCc1c(N2CCN(C(=O)c3ncc4c(ccn4C)c3O)CC2)c(=O)n2nc(C3=CCOCC3)nc2n1CC(=O)Nc1ccc(C(F)(F)F)cc1Cl` [Example 205, N-(2-Chloro-4-(trifluoromethyl)phenyl)-2-(2-(3,6-dihydro-2H-pyran-4-yl)-5-ethyl-6-(4-(4-hydroxy-1-methyl-1H-pyrrolo[2,3-c]pyridine-5-carbonyl)piperazin-1-yl)-7-oxo-[1,2,4]triazolo[1,5-a]pyrimidin-4(7H)-yl)acetamide], the IC50 in assay [1] and in assay [2] was < 100 nM throughout.

Consider `CCc1c(N2CCN(C(=O)CNC(=O)Nc3ccccc3)CC2)c(=O)n2nc(C3=CCOCC3)nc2n1CC(=O)Nc1ccc(C(F)(F)F)cc1Cl` [Example 178, N-(2-Chloro-4-(trifluoromethyl)phenyl)-2-(2-(3,6-dihydro-2H-pyran-4-yl)-5-ethyl-7-oxo-6-(4-((phenylcarbamoyl)glycyl)piperazin-1-yl)-[1,2,4]triazolo[1,5-a]pyrimidin-4 (7H)-yl)acetamide], for which the IC50 in assay [1] and in assay [2] was < 100 nM each time.

For `CCc1c(N2CCN(C(=O)CNC(=O)c3ccccc3F)CC2)c(=O)n2nc(C3=CCOCC3)nc2n1CC(=O)Nc1ccc(C(F)(F)F)cc1F` [Example 149, N-(2-(4-(2-(3,6-Dihydro-2H-pyran-4-yl)-5-ethyl-4-(2-((2-fluoro-4-(trifluoromethyl)phenyl)amino)-2-oxoethyl)-7-oxo-4,7-dihydro-[1,2,4]triazolo[1,5-a]pyrimidin-6-yl)piperazin-1-yl)-2-oxoethyl)-2-fluorobenzamide], the IC50 in assay [1] and in assay [2] was < 100 nM throughout.

Take `CCc1c(N2CCN(C(=O)CNC(=O)c3ccc(NC)cc3F)CC2)c(=O)n2nc(C3=CCOCC3)nc2n1CC(=O)Nc1ccc(C(F)(F)F)cc1Cl` [Example 380, N-(2-(4-(4-(2-((2-Chloro-4-(trifluoromethyl)phenyl)amino)-2-oxoethyl)-2-(3,6-dihydro-2H-pyran-4-yl)-5-ethyl-7-oxo-4,7-dihydro-[1,2,4]triazolo[1,5-a]pyrimidin-6-yl)piperazin-1-yl)-2-oxoethyl)-2-fluoro-4-(methylamino)benzamide]: the IC50 in assay [1] and in assay [2] was 100 to 1000 nM throughout.

In the case of `CCc1c(N2CCN(C(=O)CNC(=O)CC(C)C)CC2)c(=O)n2nc(C3=CCOCC3)nc2n1CC(=O)Nc1ccc(C(F)(F)F)cc1Cl` [Example 320, N-(2-(4-(4-(2-((2-Chloro-4-(Trifluoromethyl)phenyl)amino)-2-oxoethyl)-2-(3,6-dihydro-2H-pyran-4-yl)-5-ethyl-7-oxo-4,7-dihydro-[1,2,4]triazolo[1,5-a]pyrimidin-6-yl)piperazin-1-yl)-2-oxoethyl)-3-methylbutanamide], the IC50 in assay [1] and in assay [2] was < 100 nM each time.

For `CCc1c(N2CCN(C(=O)CNC(=O)c3ccccc3F)CC2)c(=O)n2nc(C3=CCOCC3)nc2n1CC(=O)Nc1cc(F)c(C(F)(F)F)cc1C` [Example 144, N-(2-(4-(2-(3,6-Dihydro-2H-pyran-4-yl)-5-ethyl-4-(2-((5-fluoro-2-methyl-4-(trifluoromethyl)phenyl)amino)-2-oxoethyl)-7-oxo-4,7-dihydro-[1,2,4]triazolo[1,5-a]pyrimidin-6-yl)piperazin-1-yl)-2-oxoethyl)-2-fluorobenzamide], the IC50 in assay [1] was 100 to 1000 nM; in assay [2] it was < 100 nM.

Take `CCc1c(N2CCN(C(=O)CNC(=O)c3cscn3)CC2)c(=O)n2nc(C3=CCOCC3)nc2n1CC(=O)Nc1ccc(C(F)(F)F)cc1Cl` [Example 129, N-(2-(4-(4-(2-((2-Chloro-4-(trifluoromethyl)phenyl)amino)-2-oxoethyl)-2-(3,6-dihydro-2H-pyran-4-yl)-5-ethyl-7-oxo-4,7-dihydro-[1,2,4]triazolo[1,5-a]pyrimidin-6-yl)piperazin-1-yl)-2-oxoethyl)thiazole-4-carboxamide]: the half-maximal inhibitory concentration (IC50) in assay [1] and in assay [2] was < 100 nM in each case.

For `CCc1c(N2CCN(C(=O)CNC(=O)c3cccc(F)c3F)CC2)c(=O)n2nc(C3=CCOCC3)nc2n1CC(=O)Nc1ccc(C(F)(F)F)cc1Cl` [Example 116, N-(2-(4-(4-(2-((2-Chloro-4-(trifluoromethyl)phenyl)amino)-2-oxoethyl)-2-(3,6-dihydro-2H-pyran-4-yl)-5-ethyl-7-oxo-4,7-dihydro-[1,2,4]triazolo[1,5-a]pyrimidin-6-yl)piperazin-1-yl)-2-oxoethyl)-2,3-difluorobenzamide], the IC50 in assay [1] and in assay [2] was < 100 nM in each case.

With `CCc1c(N2CCN(C(=O)CNC(=O)c3ccccc3)CC2)c(=O)n2nc(N3CC4COCC4C3)nc2n1CC(=O)Nc1ccc(C(F)(F)F)cc1Cl` (stereo not drawn) [Example 233, N-(2-(4-(4-(2-((2-Chloro-4-(trifluoromethyl)phenyl)amino)-2-oxoethyl)-5-ethyl-7-oxo-2-(tetrahydro-1H-furo[3,4-c]pyrrol-5 (3H)-yl)-4,7-dihydro-[1,2,4]triazolo[1,5-a]pyrimidin-6-yl)piperazin-1-yl)-2-oxoethyl)benzamide], the IC50 in assay [1] and in assay [2] was < 100 nM throughout.

`CCOC(=O)NCC(=O)N1CCN(c2c(CC)n(CC(=O)Nc3ccc(C(F)(F)F)cc3Cl)c3nc(C4=CCOCC4)nn3c2=O)CC1` [Example 167, Ethyl (2-(4-(4-(2-((2-chloro-4-(trifluoromethyl)phenyl)amino)-2-oxoethyl)-2-(3,6-dihydro-2H-pyran-4-yl)-5-ethyl-7-oxo-4,7-dihydro-[1,2,4]triazolo[1,5-a]pyrimidin-6-yl)piperazin-1-yl)-2-oxoethyl)carbamate]: the IC50 in assay [1] and in assay [2] was < 100 nM in each case.

As for `CCc1c(N2CCN(C(=O)CNC(=O)c3cccc(N)c3)CC2)c(=O)n2nc(C3=CCOCC3)nc2n1CC(=O)Nc1ccc(C(F)(F)F)cc1Cl` [Example 288, 3-Amino-N-(2-(4-(4-(2-((2-chloro-4-(trifluoromethyl)phenyl)amino)-2-oxoethyl)-2-(3,6-dihydro-2H-pyran-4-yl)-5-ethyl-7-oxo-4,7-dihydro-[1,2,4]triazolo[1,5-a]pyrimidin-6-yl)piperazin-1-yl)-2-oxoethyl)benzamide], the half-inhibitory concentration (IC50) in assay [1] and in assay [2] was < 100 nM each time.

With `CCc1c(N2CCN(C(=O)CNC(=O)c3cccc4nonc34)CC2)c(=O)n2nc(C3=CCOCC3)nc2n1CC(=O)Nc1ccc(C(F)(F)F)cc1Cl` [Example 383, N-(2-(4-(4-(2-((2-Chloro-4-(trifluoromethyl)phenyl)amino)-2-oxoethyl)-2-(3,6-dihydro-2H-pyran-4-yl)-5-ethyl-7-oxo-4,7-dihydro-[1,2,4]triazolo[1,5-a]pyrimidin-6-yl)piperazin-1-yl)-2-oxoethyl)benzo[c][1,2,5]oxadiazole-4-carboxamide], the half-maximal inhibitory concentration (IC50) in assay [1] and in assay [2] was < 100 nM throughout.

In the case of `CCc1c(N2CCN(C(=O)CNC(=O)c3ccn[nH]3)CC2)c(=O)n2nc(C3=CCOCC3)nc2n1CC(=O)Nc1ccc(C(F)(F)F)cc1Cl` [Example 101, N-(2-(4-(4-(2-((2-Chloro-4(trifluoromethyl)phenyl)amino)-2-oxoethyl)-2-(3,6-dihydro-2H-pyran-4-yl)-5-ethyl-7-oxo-4,7-dihydro-[1,2,4]triazolo[1,5-a]pyrimidin-6-yl)piperazin-1-yl)-2-oxoethyl)-1H-pyrazole-5-carboxamide], the half-maximal inhibitory concentration (IC50) in assay [1] and in assay [2] was < 100 nM each time.

For the compound `CCc1c(N2CCN(C(=O)c3cnc(C(F)(F)F)[nH]3)CC2)c(=O)n2nc(C3=CCOCC3)nc2n1CC(=O)Nc1ccc(Cl)cc1C(F)(F)F` [Example 70, N-(4-Chloro-2-(trifluoromethyl)phenyl)-2-(2-(3,6-dihydro-2H-pyran-4-yl)-5-ethyl-7-oxo-6-(4-(2-(trifluoromethyl)-1H-imidazole-5-carbonyl)piperazin-1-yl)-[1,2,4]triazolo[1,5-a]pyrimidin-4(7H)-yl)acetamide], the IC50 in assay [1] and in assay [2] was 100 to 1000 nM each time.

For the compound `CCc1c(N2CCN(C(=O)CNC(=O)c3cccs3)CC2)c(=O)n2nc(C3=CCOCC3)nc2n1CC(=O)Nc1ccc(C(F)(F)F)cc1Cl` [Example 386, N-(2-(4-(4-(2-((2-Chloro-4-(trifluoromethyl)phenyl)amino)-2-oxoethyl)-2-(3,6-dihydro-2H-pyran-4-yl)-5-ethyl-7-oxo-4,7-dihydro-[1,2,4]triazolo[1,5-a]pyrimidin-6-yl)piperazin-1-yl)-2-oxoethyl)thiophene-2-carboxamide], the IC50 in assay [1] and in assay [2] was < 100 nM each time.

Consider `CCc1c(N2CCN(C(=O)CNC(=O)Nc3cc(F)ccc3F)CC2)c(=O)n2nc(C3=CCOCC3)nc2n1CC(=O)Nc1ccc(C(F)(F)F)cc1Cl` [Example 186, N-(2-Chloro-4-(trifluoromethyl)phenyl)-2-(6-(4-(((2,5-difluorophenyl)carbamoyl)glycyl)piperazin-1-yl)-2-(3,6-dihydro-2H-pyran-4-yl)-5-ethyl-7-oxo-[1,2,4]triazolo[1,5-a]pyrimidin-4(7H)-yl)acetamide], for which the IC50 in assay [1] and in assay [2] was < 100 nM each time.
